Measurements as given in patent US10399940B2, “Substituted pyrrolidines and methods of use” (AbbVie S.à.r.l., priority 2016, dated 2019).
Where two headings read alike, the source gives them in different places.

Molecular target: T1, F508delCFTR (Homo sapiens, UniProt P13569, DEL508-508)
T1 construct: expressed in transfected cells; host or cells: CFBE41o- (human lung derived epithelial cell line), doxycycline-inducible expression
Assay: Cell Surface Expression-Horse Radish Peroxidase (CSE-HRP) assay
Type: cell-based
Settings: CFBE41o-F508delCFTR-HRP cells; for Maximum % activity (with co-corrector): with co-corrector (2 μM); for Maximum % activity (with co-corrector) / Maximum % activity (without co-corrector): normalized to on-plate positive control, highest concentration 20 μM
Procedure: Cell Surface Expression-Horse Radish Peroxidase (CSE-HRP) Assay
A cellular assay for measuring the F508delCFTR cell surface expression after correction with test compounds either without or with a co-corrector (2 μM of 3-[(2R,4R)-4-({[1-(2,2-difluoro-1,3-benzodioxol-5-yl)cyclopropyl]carbonyl}amino)-7-methoxy-3,4-dihydro-2H-chromen-2-yl]benzoic acid), was developed in human lung derived epithelial cell line (CFBE41o-) (Veit G et al, (2012) Mol Biol Cell. 23(21): 4188-4202). The development was achieved by expressing the F508delCFTR mutation along with a horseradish peroxidase (HRP) in the fourth exofacial loop, and then measuring the HRP activity using luminescence readout from these cells, CFBE41o-F508delCFTR-HRP, that were incubated overnight with the test corrector compounds, either without or with the co-corrector. For this primary assay, the CFBE41o-F508delCFTR-HRP cells were plated in 384-well plates (Greiner Bio-one; Cat 781080) at 4,000 cells/well along with 0.5 μg/mL doxycycline to induce the F508delCFTR-HRP expression and further incubated at 37° C., 5% CO2 for 72 hours. The test compounds were then added either without or with a co-corrector at the required concentrations and further incubated for 18-24 hours at 33° C. The highest concentration tested was 20 μM with an 8-point concentration response curve using a 3-fold dilution in both the test compound without or with the co-corrector. Three replicate plates were run to determine one EC50. All plates contained negative controls (dimethyl sulfoxide, DMSO) and positive control (2 μM of 3-[(2R,4R)-4-({[1-(2,2-difluoro-1,3-benzodioxol-5-yl)cyclopropyl]carbonyl}amino)-7-methoxy-3,4-dihydro-2H-chromen-2-yl]benzoic acid) as well as on-plate concentration response of the positive control. Post incubation, the plates were washed 5× times with Dulbecco's phosphate buffered saline (DPBS), followed by the addition of the HRP substrate, luminol (50 μL), and measuring the HRP activity using luminescence readout on EnVision® Multilabel Plate Reader (Perkin Elmer; product number 2104-0010). The raw counts from the experiment were analyzed using Accelrys® Assay Explorer v3.3.
Z′ greater than 0.5 was used as passing quality control criteria for the plates.
The Z′ is defined as: 1−[3*SDPositive Control+3*SDNegative Control/Absolute(MeanPositive Control−MeanNegative Control)] wherein “SD” is standard deviation.
The % activity measured at each of the 8 test concentrations of the test compound added either without or with a co-corrector (2 μM of 3-[(2R,4R)-4-({[1-(2,2-difluoro-1,3-benzodioxol-5-yl)cyclopropyl]carbonyl}amino)-7-methoxy-3,4-dihydro-2H-chromen-2-yl]benzoic acid) was normalized to the on-plate positive control using the following formulae: % activity(Test compound without co-corrector)=[(test compound without co-corrector response−DMSO response)/(positive control response−DMSO response)]*100 % activity(Test compound with co-corrector)=[(test compound with co-corrector response−DMSO response)/(positive control response−DMSO response)]*100
The maximum % activity achieved for the test compound either without or with a co-corrector at any tested concentration is presented in Table 1 along with the respective EC50's calculated using the following general sigmoidal curve with variable Hill slope equation (described as Model 42 in the Accelrys® Assay Explorer v3.3 software): y=(a−d)/(1+(x/c)^b)+d
General sigmoidal curve with concentration, response, top, bottom, EC50 and Hill slope. This model describes a sigmoidal curve with an adjustable baseline, a. The equation can be used to fit curves where response is either increasing or decreasing with respect to the independent variable, “x”. • “x” is a concentration of drug under test. • “y” is the response. • “a” is the maximum response, and “d” is the minimum response • “c” is the inflection point (EC50) for the curve. That is, “y” is halfway between the lower and upper asymptotes when x=c. “b” is the slope-factor or Hill coefficient. […]

[1] = test compound without co-corrector, 18-24 hours at 33° C., read-out: EC50 (without co-corrector)
[2] = with co-corrector (2 μM of 3-[(2R,4R)-4-({[1-(2,2-difluoro-1,3-benzodioxol-5-yl)cyclopropyl]carbonyl}amino)-7-methoxy-3,4-dihydro-2H-chromen-2-yl]benzoic acid), read-out: EC50 (with co-corrector)

T1 sequence (P13569 with tags, fused parts or gaps DEL508-508): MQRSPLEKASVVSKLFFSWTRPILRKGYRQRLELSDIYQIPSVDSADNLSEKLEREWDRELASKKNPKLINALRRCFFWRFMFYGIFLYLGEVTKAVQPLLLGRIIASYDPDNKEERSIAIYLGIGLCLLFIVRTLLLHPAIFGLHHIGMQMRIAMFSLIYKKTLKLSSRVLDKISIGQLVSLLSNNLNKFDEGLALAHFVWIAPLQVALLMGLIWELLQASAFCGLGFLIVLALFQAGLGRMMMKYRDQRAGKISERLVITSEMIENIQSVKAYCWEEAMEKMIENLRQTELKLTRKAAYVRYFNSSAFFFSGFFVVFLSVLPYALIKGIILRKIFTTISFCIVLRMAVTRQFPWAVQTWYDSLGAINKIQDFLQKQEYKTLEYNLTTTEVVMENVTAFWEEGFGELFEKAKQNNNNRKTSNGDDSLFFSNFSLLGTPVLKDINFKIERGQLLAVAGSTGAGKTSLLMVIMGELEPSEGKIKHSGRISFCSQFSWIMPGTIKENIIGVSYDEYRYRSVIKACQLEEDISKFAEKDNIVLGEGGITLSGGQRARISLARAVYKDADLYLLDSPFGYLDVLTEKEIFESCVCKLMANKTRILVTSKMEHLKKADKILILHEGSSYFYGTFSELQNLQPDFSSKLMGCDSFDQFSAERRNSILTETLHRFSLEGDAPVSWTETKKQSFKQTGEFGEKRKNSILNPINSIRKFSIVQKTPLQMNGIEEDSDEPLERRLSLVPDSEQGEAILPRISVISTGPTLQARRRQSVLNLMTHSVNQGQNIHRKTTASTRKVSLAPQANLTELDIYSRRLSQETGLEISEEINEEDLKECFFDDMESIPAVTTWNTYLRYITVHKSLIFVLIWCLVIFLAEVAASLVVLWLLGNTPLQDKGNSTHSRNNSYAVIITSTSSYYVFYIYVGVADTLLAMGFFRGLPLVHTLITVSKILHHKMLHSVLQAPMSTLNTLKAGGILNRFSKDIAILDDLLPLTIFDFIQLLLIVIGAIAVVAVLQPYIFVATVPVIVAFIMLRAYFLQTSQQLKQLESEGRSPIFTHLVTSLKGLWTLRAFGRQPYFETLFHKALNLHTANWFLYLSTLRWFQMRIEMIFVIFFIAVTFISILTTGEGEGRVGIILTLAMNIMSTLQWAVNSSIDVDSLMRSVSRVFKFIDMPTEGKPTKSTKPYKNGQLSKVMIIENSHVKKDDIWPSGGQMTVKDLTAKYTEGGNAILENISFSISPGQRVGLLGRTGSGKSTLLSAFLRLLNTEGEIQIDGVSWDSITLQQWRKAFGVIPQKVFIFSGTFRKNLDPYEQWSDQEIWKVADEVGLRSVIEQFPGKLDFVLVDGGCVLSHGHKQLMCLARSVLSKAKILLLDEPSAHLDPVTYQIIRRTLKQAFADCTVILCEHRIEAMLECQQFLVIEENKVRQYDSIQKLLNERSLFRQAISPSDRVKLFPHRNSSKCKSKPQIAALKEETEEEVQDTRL

EC50 [1] [µM] | EC50 [2] [µM] | Maximum % activity (with co-corrector) | Maximum % activity (without co-corrector) | SMILES
< 1 | < 1 | ++ (≥150 and <350) | + (<100) | COc1ncc(C(F)(F)F)cc1CO[C@H]1[C@H](C(C)(C)C)[C@@H](C(=O)O)N(C(=O)[C@H]2CCCCO2)[C@H]1c1cccc(C(C)(C)C)c1 (single isomer, unassigned) [Example 157]
1 to 10 | < 1 | +++ (≥350) | ++ (≥100 and <200) | COc1ncc(C(F)(F)F)cc1CO[C@H]1[C@H](C(C)(C)C)[C@@H](C(=O)O)N(C(=O)[C@@H]2CCCO2)[C@H]1c1ccccc1Cl [Example 115, (2S,3R,4S,5S)-3-tert-butyl-5-(2-chlorophenyl)-4-{[2-methoxy-5-(trifluoromethyl)pyridin-3-yl]methoxy}-1-[(2S)-oxolane-2-carbonyl]pyrrolidine-2-carboxylic acid]
1 to 10 | 1 to 10 | +++ (≥350) | +++ (≥200) | COc1ccc(C(C)(C)C)cc1CO[C@H]1[C@H](C(C)(C)C)[C@@H](C(=O)O)N(C(=O)[C@@H]2CCCO2)[C@H]1c1ccccc1C [Example 247, (2S,3R,4S,5S)-3-tert-butyl-4-[(5-tert-butyl-2-methoxyphenyl)methoxy]-5-(2-methylphenyl)-1-[(2S)-oxolane-2-carbonyl]pyrrolidine-2-carboxylic acid]
< 1 | < 1 | +++ (≥350) | + (<100) | COc1ncc(C(F)(F)F)cc1CO[C@H]1[C@H](C(C)(C)C)[C@@H](C(=O)O)N(C(=O)[C@@H]2CCCC[C@H]2C(F)(F)F)[C@H]1c1cccnc1OC(C)C (single isomer, unassigned) [Example 282]
1 to 10 | 1 to 10 | +++ (≥350) | +++ (≥200) | COc1ccc(C(C)(C)C)cc1CO[C@H]1[C@H](C(C)(C)C)[C@@H](C(=O)O)N(C(=O)[C@@H]2CCCO2)[C@H]1c1ccccc1C1CC1 [Example 172, (2S,3R,4S,5S)-3-tert-butyl-4-[(5-tert-butyl-2-methoxyphenyl)methoxy]-5-(2-cyclopropylphenyl)-1-[(2S)-oxolane-2-carbonyl]pyrrolidine-2-carboxylic acid]
1 to 10 | < 1 | +++ (≥350) | +++ (≥200) | CCc1ccccc1[C@H]1[C@@H](OCc2cc3ccccc3nc2OC)[C@H](C(C)(C)C)[C@@H](C(=O)O)N1C(=O)[C@@H]1CCCCO1 [Example 254, (2S,3R,4S,5S)-3-tert-butyl-5-(2-ethylphenyl)-4-[(2-methoxyquinolin-3-yl)methoxy]-1-[(2S)-oxane-2-carbonyl]pyrrolidine-2-carboxylic acid]

More lines, now with the values behind:

SMILES | EC50 [1] [µM] | EC50 [2] [µM] | Maximum % activity (with co-corrector) | Maximum % activity (without co-corrector)
COc1ncc(C2CCC2)cc1CO[C@H]1[C@H](C(C)(C)C)[C@@H](C(=O)O)N(C(=O)C2CCCCC2)[C@H]1c1ccccc1Br [Example 183, (2S,3R,4S,5S)-5-(2-bromophenyl)-3-tert-butyl-4-[(5-cyclobutyl-2-methoxypyridin-3-yl)methoxy]-1-(cyclohexanecarbonyl)pyrrolidine-2-carboxylic acid] | 1 to 10 | 1 to 10 | +++ (≥350) | ++ (≥100 and <200)
CC(C)Oc1ncccc1[C@H]1[C@@H](OCc2coc3ccc(C(F)(F)F)cc23)[C@H](C(C)(C)C)[C@@H](C(=O)O)N1C(=O)C1CCCCC1 [Example 279, (2S,3R,4S,5S)-3-tert-butyl-1-(cyclohexanecarbonyl)-5-{2-[(propan-2-yl)oxy]pyridin-3-yl}-4-{[5-(trifluoromethyl)-1-benzofuran-3-yl]methoxy}pyrrolidine-2-carboxylic acid] | < 1 | < 1 | +++ (≥350) | ++ (≥100 and <200)
COc1ncc(C(C)(C)C)cc1CO[C@H]1[C@H](C(C)(C)C)[C@@H](C(=O)O)N(C(=O)OC(C)C)[C@H]1c1ccccc1F [Example 74, (2S,3R,4S,5S)-3-tert-butyl-4-[(5-tert-butyl-2-methoxypyridin-3-yl)methoxy]-5-(2-fluorophenyl)-1-{[(propan-2-yl)oxy]carbonyl}pyrrolidine-2-carboxylic acid] | 1 to 10 | 1 to 10 | +++ (≥350) | ++ (≥100 and <200)
COc1ncc(C2CCC2)cc1CO[C@H]1[C@H](C(C)(C)C)[C@@H](C(=O)O)N(C(=O)C2(C(F)(F)F)CCCC2)[C@H]1c1cccnc1OC(C)C [Example 276, (2S,3R,4S,5S)-3-tert-butyl-4-[(5-cyclobutyl-2-methoxypyridin-3-yl)methoxy]-5-{2-[(propan-2-yl)oxy]pyridin-3-yl}-1-[1-(trifluoromethyl)cyclopentane-1-carbonyl]pyrrolidine-2-carboxylic acid] | > 10 | < 1 | ++ (≥150 and <350) | + (<100)
COc1ccc(C(F)(F)F)cc1COC1[C@@H](c2ccccc2)N(C(=O)C2CCCCC2)[C@@H](C(=O)NS(C)(=O)=O)[C@@H]1C(C)(C)C (mixture of isomers) [Example 16, rac-(2R,3S,5R)-3-tert-butyl-1-(cyclohexanecarbonyl)-N-(methanesulfonyl)-4-{[2-methoxy-5-(trifluoromethyl)phenyl]methoxy}-5-phenylpyrrolidine-2-carboxamide] | 1 to 10 | 1 to 10 | ++ (≥150 and <350) | + (<100)
COc1ccc(C2(C)CCC2)cc1CO[C@H]1[C@H](C(C)(C)C)[C@@H](C(=O)O)N(C(=O)OC(C)C)[C@H]1c1cccnc1OC(C)C [Example 246, (2S,3R,4S,5S)-3-tert-butyl-4-{[2-methoxy-5-(1-methylcyclobutyl)phenyl]methoxy}-1-{[(propan-2-yl)oxy]carbonyl}-5-{2-[(propan-2-yl)oxy]pyridin-3-yl}pyrrolidine-2-carboxylic acid] | 1 to 10 | < 1 | +++ (≥350) | +++ (≥200)
COc1ncc(N2CCCCC2)cc1CO[C@H]1[C@H](C(C)(C)C)[C@@H](C(=O)O)N(C(=O)OC(C)C)[C@H]1c1ccccc1 [Example 81, (2S,3R,4S,5S)-3-tert-butyl-4-{[2-methoxy-5-(piperidin-1-yl)pyridin-3-yl]methoxy}-5-phenyl-1-{[(propan-2-yl)oxy]carbonyl}pyrrolidine-2-carboxylic acid] | 1 to 10 | 1 to 10 | ++ (≥150 and <350) | + (<100)
